# Laboratory results as given in patent publication US8877759B2, “Aminopyrazines as ATR kinase inhibitors” (Vertex Pharnaceuticals Incorporated, priority 2011, dated 2014).
# pKi: −log10 of the molar value.
# Biological target: T1, full-length ATR (Homo sapiens, UniProt Q13535)
# T1 construct: Assays were carried out at 25° C. in the presence of 5 nM full-length ATR
# Experiment: ATR Inhibition Assay (radioactive-phosphate incorporation)
# Format: biochemical
# Settings: not given
# Protocol: Compounds were screened for their ability to inhibit ATR kinase using a radioactive-phosphate incorporation assay. Assays were carried out in a mixture of 50 mM Tris/HCl (pH 7.5), 10 mM MgCl2 and 1 mM DTT.
# Assays were carried out at 25° C. in the presence of 5 nM full-length ATR. An assay stock buffer solution was prepared containing all of the reagents listed above, with the exception of ATP and the test compound of interest. […] The plate was pre-incubated for 10 minutes at 25° C. and the reaction initiated by addition of 15 μL [γ-33P]ATP (final concentration 10 μM).
# The reaction was stopped after […] by the addition of 30 μL 0.1M phosphoric acid containing 2 mM ATP. A multiscreen phosphocellulose filter 96-well plate (Millipore, Cat no. MAPHN0B50) was pretreated with 100 μL 0.2M phosphoric acid prior to the addition of 45 μL of the stopped assay mixture. The plate was washed with 5×200 μL 0.2M phosphoric acid.
# After removing mean background values for all of the data points, Ki(app) data were calculated from non-linear regression analysis of the initial rate data using the Prism software package (GraphPad Prism version 3.0cx for Macintosh, GraphPad Software, San Diego Calif., USA).
# T1 sequence (Q13535 whole entry): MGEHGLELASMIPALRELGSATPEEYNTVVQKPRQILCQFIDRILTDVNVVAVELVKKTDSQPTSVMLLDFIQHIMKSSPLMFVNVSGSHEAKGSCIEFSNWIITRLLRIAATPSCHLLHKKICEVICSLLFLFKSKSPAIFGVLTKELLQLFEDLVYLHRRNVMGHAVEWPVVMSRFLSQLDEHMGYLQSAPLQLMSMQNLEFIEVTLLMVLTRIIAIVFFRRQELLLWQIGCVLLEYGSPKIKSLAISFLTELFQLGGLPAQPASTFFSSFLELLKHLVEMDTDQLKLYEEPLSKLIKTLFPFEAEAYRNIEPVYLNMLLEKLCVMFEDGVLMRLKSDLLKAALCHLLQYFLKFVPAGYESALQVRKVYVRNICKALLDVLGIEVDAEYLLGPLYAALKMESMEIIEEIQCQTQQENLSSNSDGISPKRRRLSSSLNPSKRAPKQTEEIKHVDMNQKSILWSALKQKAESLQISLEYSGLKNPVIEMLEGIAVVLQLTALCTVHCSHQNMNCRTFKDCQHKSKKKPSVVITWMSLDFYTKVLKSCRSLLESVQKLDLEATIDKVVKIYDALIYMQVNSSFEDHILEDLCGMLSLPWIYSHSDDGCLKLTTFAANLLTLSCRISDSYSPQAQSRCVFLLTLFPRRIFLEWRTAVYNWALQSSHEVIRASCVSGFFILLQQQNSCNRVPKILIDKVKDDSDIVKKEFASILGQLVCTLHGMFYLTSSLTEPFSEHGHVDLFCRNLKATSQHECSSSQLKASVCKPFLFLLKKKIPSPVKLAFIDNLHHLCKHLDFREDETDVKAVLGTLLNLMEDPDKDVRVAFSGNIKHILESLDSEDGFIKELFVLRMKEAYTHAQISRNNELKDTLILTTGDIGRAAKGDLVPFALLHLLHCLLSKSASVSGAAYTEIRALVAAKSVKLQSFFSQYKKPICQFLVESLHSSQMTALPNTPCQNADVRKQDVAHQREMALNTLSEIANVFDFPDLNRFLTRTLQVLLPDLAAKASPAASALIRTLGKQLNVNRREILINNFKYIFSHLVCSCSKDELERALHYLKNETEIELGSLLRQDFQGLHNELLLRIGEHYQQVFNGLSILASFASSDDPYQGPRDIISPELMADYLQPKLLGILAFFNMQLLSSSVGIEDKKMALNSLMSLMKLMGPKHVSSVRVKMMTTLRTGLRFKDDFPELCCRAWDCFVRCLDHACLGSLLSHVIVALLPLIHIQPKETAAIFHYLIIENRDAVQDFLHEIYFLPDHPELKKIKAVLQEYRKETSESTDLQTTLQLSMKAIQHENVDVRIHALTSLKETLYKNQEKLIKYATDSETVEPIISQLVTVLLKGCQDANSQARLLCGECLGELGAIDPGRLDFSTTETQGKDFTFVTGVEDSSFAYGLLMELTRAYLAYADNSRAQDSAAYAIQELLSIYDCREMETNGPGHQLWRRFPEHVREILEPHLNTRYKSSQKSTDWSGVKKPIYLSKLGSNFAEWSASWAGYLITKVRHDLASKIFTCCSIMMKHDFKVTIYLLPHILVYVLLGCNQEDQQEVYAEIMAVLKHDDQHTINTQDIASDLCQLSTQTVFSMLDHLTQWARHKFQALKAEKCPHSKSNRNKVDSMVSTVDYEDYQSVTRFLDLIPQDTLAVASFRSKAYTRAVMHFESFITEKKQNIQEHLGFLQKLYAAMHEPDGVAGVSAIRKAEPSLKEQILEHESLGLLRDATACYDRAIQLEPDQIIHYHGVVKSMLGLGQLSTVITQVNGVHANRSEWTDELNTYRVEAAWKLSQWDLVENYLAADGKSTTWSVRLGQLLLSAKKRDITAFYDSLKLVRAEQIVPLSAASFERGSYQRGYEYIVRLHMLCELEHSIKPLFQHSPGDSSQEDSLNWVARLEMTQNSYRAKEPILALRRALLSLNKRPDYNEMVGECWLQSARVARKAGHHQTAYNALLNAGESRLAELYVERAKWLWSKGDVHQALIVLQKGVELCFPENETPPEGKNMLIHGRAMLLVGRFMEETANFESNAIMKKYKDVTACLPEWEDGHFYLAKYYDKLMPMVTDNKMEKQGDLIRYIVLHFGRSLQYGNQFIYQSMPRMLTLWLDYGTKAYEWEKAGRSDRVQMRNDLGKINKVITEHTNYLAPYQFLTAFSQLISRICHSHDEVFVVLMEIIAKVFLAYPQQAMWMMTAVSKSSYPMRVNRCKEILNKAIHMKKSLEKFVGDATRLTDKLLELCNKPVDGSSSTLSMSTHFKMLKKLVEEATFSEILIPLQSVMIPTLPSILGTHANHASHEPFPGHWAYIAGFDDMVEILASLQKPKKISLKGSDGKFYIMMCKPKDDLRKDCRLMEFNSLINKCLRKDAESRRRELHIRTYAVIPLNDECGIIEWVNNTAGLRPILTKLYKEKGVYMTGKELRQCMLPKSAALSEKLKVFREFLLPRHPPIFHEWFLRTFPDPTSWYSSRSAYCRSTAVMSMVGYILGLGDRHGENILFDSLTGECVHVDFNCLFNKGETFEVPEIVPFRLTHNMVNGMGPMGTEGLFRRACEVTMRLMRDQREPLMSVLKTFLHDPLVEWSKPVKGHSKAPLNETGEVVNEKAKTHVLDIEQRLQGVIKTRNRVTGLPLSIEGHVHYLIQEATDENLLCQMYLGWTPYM
row,pKi,SMILES
1,> 9.00,COC[C@@H](N)c1ccc(-c2nnc(-c3nc(-c4ccnc(C(C)(C)C#N)c4)cnc3N)o2)cc1 [Compound I-87]
2,> 9.00,CC(C)(C#N)c1cc(-c2cnc(N)c(-c3nnc(-c4cccc(N5CC[C@H](N)C5)c4)o3)n2)ccn1 [Compound I-90]
3,> 9.00,"CNCc1ccc(-c2nnc(-c3nc(-c4ccnc(C(C)(C)C#N)c4)cnc3N)o2)cc1 [Compound I-4, 2-[4-[5-amino-6-[5-[4-(methylaminomethyl)phenyl]-1,3,4-oxadiazol-2-yl]pyrazin-2-yl]-2-pyridyl]-2-methyl-propanenitrile]"
4,> 9.00,CC(C)(C#N)c1cc(-c2cnc(N)c(-c3cc(-c4ccc(CNC5CCCOC5)cc4)no3)n2)ccn1 (centres unmarked) [Compound I-93]
5,> 9.00,CN(C)C1CN(c2ccc(-c3nnc(-c4nc(-c5ccnc(C(C)(C)C#N)c5)cnc4N)o3)cc2)C1 [Compound I-131]
6,> 9.00,"CC(C)(C#N)c1cc(-c2cnc(N)c(-c3cc(-c4ccc(CN[C@@H]5CCOC5)cc4)no3)n2)ccn1 [Compound I-17, 2-[4-[5-amino-6-[3-[4-[[[(3R)-tetrahydrofuran-3-yl]amino]methyl]phenyl]isoxazol-5-yl]pyrazin-2-yl]-2-pyridyl]-2-methyl-propanenitrile]"
7,7.70 to 8.30,CNCCNC(=O)C(C)(C)c1cc(-c2cnc(N)c(-c3cc(-c4ccccc4)no3)n2)ccn1 [Compound I-65]
8,> 9.00,CC(C)(C#N)c1cc(-c2cnc(N)c(-c3nnc(-c4ccc(CNCC5COC5)cc4)o3)n2)ccn1 [Compound I-105]
9,7.70 to 8.30,CC(C)(C#N)c1cc(-c2cnc(N)c(-c3nnc(-c4cccc(N5CCC(N)CC5)c4)o3)n2)ccn1 [Compound I-125]
10,> 9.00,CC(C)(C#N)c1cc(-c2cnc(N)c(-c3nnc(-c4ccc(OC5CNC5)cc4)o3)n2)ccn1 [Compound I-113]
11,> 9.00,CC(C)(C#N)c1cc(-c2cnc(N)c(-c3nnc(-c4ccc(CNC5CCOCC5)cc4F)o3)n2)ccn1 [Compound I-124]
12,7.70 to 8.30,CC(C)(C#N)c1cc(-c2cnc(N)c(-c3nnc(-c4cccc(C5CCCN5)c4)o3)n2)ccn1 (centres unmarked) [Compound I-89]
13,7.70 to 8.30,CC(C)(C#N)c1cc(-c2cnc(N)c(-c3nnc(-c4ccc(NCCN)cc4F)o3)n2)ccn1 [Compound I-75]
14,> 9.00,CC(C)(C#N)c1cc(-c2cnc(N)c(-c3nnc(-c4ccc(CCN)cc4)o3)n2)ccn1 [Compound I-57]
15,> 9.00,"C[C@H](N)c1ccc(-c2nnc(-c3nc(-c4ccnc(C(C)(C)C#N)c4)cnc3N)o2)cc1 [Compound I-44, 2-[4-[5-amino-6-[5-[4-[(1S)-1-aminoethyl]phenyl]-1,3,4-oxadiazol-2-yl]pyrazin-2-yl]-2-pyridyl]-2-methyl-propanenitrile]"
16,7.70 to 8.30,N#CC1(c2cc(-c3cnc(N)c(-c4nnc(-c5ccccc5)o4)n3)ccn2)CCNCC1 [Compound I-94]
17,> 9.00,CC(C)(C#N)c1cc(-c2cnc(N)c(-c3nnc(-c4ccc(C5CCCN5)cc4)o3)n2)ccn1 (centres unmarked) [Compound I-79]
18,> 9.00,"N#CC1(c2cc(-c3cnc(N)c(-c4cc(-c5ccc(CN[C@H]6CCOC6)cc5)no4)n3)ccn2)CCOCC1 [Compound I-42, 4-[4-[5-amino-6-[3-[4-[[[(3S)-tetrahydrofuran-3-yl]amino]methyl]phenyl]isoxazol-5-yl]pyrazin-2-yl]-2-pyridyl]tetrahydropyran-4-carbonitrile]"
19,7.70 to 8.30,CN1CCN(Cc2ccc(-c3nnc(-c4nc(-c5ccnc(C(C)(C)C#N)c5)cnc4N)o3)cc2)CC1 [Compound I-100]
20,> 9.00,COCC(CO)CNCc1ccc(-c2cc(-c3nc(-c4ccnc(C(C)(C)C#N)c4)cnc3N)on2)cc1 (centres unmarked) [Compound I-67]
21,> 9.00,CC(C)(C(=O)NCCN)c1cc(-c2cnc(N)c(-c3cc(-c4ccccc4)no3)n2)ccn1 [Compound I-63]
22,> 9.00,"CC(C)(C(=O)NCCO)c1cc(-c2cnc(N)c(-c3cc(-c4ccccc4)no3)n2)ccn1 [Compound I-46, 2-[4-[5-amino-6-(3-phenylisoxazol-5-yl)pyrazin-2-yl]-2-pyridyl]-N-(2-hydroxyethyl)-2-methyl-propanamide]"
23,> 9.00,"N#CC1(c2cc(-c3cnc(N)c(-c4cc(-c5ccc(CN[C@H]6CCOC6)cc5)no4)n3)ccn2)CC1 [Compound I-34, 1-[4-[5-amino-6-[3-[4-[[[(3S)-tetrahydrofuran-3-yl]amino]methyl]phenyl]isoxazol-5-yl]pyrazin-2-yl]-2-pyridyl]cyclopropanecarbonitrile]"
24,> 9.00,"CN1CCCC(C#N)(c2cc(-c3cnc(N)c(-c4cc(-c5ccccc5)no4)n3)ccn2)C1 (centres unmarked) [Compound I-37, 3-[4-[5-amino-6-(3-phenylisoxazol-5-yl)pyrazin-2-yl]-2-pyridyl]-1-methyl-piperidine-3-carbonitrile]"
25,> 9.00,"CNCc1ccc(-c2cc(-c3nc(-c4ccnc(C(C)C#N)c4)cnc3N)on2)cc1 (centres unmarked) [Compound I-49, 2-[4-[5-amino-6-[3-[4-(methylaminomethyl)phenyl]isoxazol-5-yl]pyrazin-2-yl]-2-pyridyl]propanenitrile]"

row,SMILES,pKi
1,N#CC1(c2cc(-c3cnc(N)c(-c4cc(-c5ccccc5)no4)n3)ccn2)CN2CCC1CC2 (centres unmarked) [Compound I-74],> 9.00

# Same assay, conditions: Ki(app); 5 nM full-length ATR, 10 μM [γ-33P]ATP, 800 μM target peptide, 25° C.
row,SMILES,ATR Ki
1,CN1CCN(c2ccc(-c3nnc(-c4nc(-c5ccnc(C(C)(C)C#N)c5)cnc4N)o3)cc2)CC1 [Compound I-86],+++ (Compounds with a Ki value >5 nM but ≦1 nM are marked with “+++.”)
2,CC(C)(C#N)c1cc(-c2cnc(N)c(-c3nnc(-c4cccc(NC5CNC5)c4)o3)n2)ccn1 [Compound I-84],+++ (Compounds with a Ki value >5 nM but ≦1 nM are marked with “+++.”)
3,CCOC(=O)C(C)(C)c1cc(-c2cnc(N)c(-c3cc(-c4ccccc4)no3)n2)ccn1 [Compound I-115],+++ (Compounds with a Ki value >5 nM but ≦1 nM are marked with “+++.”)
4,"CC(C)(C(N)=O)c1cc(-c2cnc(N)c(-c3cc(-c4ccccc4)no3)n2)ccn1 [Compound I-45, 2-[4-[5-amino-6-(3-phenylisoxazol-5-yl)pyrazin-2-yl]-2-pyridyl]-2-methyl-propanamide]",+++ (Compounds with a Ki value >5 nM but ≦1 nM are marked with “+++.”)
5,"N#CC1(c2cc(-c3cnc(N)c(-c4cc(-c5ccc(CO)cc5)no4)n3)ccn2)CCNCC1 [Compound I-31, 4-[4-[5-amino-6-[3-[4-(hydroxymethyl)phenyl]isoxazol-5-yl]pyrazin-2-yl]-2-pyridyl]piperidine-4-carbonitrile]",+++ (Compounds with a Ki value >5 nM but ≦1 nM are marked with “+++.”)
6,CC(C)(C#N)c1nccc(-c2cnc(N)c(-c3cc(-c4ccc(CNC5CCOCC5)cc4)no3)n2)c1F [Compound I-138],+++ (Compounds with a Ki value >5 nM but ≦1 nM are marked with “+++.”)
7,"CC(C)(C#N)c1cc(-c2cnc(N)c(-c3nnc(-c4ccc5c(c4)CCNC5)o3)n2)ccn1 [Compound I-52, 2-[4-[5-amino-6-[5-(1,2,3,4-tetrahydroisoquinolin-6-yl)-1,3,4-oxadiazol-2-yl]pyrazin-2-yl]-2-pyridyl]-2-methyl-propanenitrile]",+++ (Compounds with a Ki value >5 nM but ≦1 nM are marked with “+++.”)
8,CC(C)(C#N)c1cc(-c2cnc(N)c(-c3nnc(-c4ccc(N5CCC(N)CC5)cc4)o3)n2)ccn1 [Compound I-76],+++ (Compounds with a Ki value >5 nM but ≦1 nM are marked with “+++.”)
9,CN(CCN)c1ccc(-c2nnc(-c3nc(-c4ccnc(C(C)(C)C#N)c4)cnc3N)o2)cc1 [Compound I-72],+++ (Compounds with a Ki value >5 nM but ≦1 nM are marked with “+++.”)
